# Reference: US20260209215A1, “GLYCINE DERIVATIVES WITH P2X4 RECEPTOR-BLOCKING ACTIVITY AS DIAGNOSTICS AND FOR THE TREATMENT OF PAIN, INFLAMMATION, CANCER, AND OTHER P2X4 RECEPTOR-RELATED DISEASES” (RHEINISCHE-FRIEDRICH-WILHELMS-UNIVERSITÄT BONN, priority 2022, published 2026)
# Target: T1, P2X4 receptor (Homo sapiens, UniProt Q99571)
# T1 construct: expressed in transfected cells; host or cells: 1321N1 astrocytoma cells, retroviral vector pQCXIN, G418 selection, monoclones
# T1 sequence (Q99571 1-388): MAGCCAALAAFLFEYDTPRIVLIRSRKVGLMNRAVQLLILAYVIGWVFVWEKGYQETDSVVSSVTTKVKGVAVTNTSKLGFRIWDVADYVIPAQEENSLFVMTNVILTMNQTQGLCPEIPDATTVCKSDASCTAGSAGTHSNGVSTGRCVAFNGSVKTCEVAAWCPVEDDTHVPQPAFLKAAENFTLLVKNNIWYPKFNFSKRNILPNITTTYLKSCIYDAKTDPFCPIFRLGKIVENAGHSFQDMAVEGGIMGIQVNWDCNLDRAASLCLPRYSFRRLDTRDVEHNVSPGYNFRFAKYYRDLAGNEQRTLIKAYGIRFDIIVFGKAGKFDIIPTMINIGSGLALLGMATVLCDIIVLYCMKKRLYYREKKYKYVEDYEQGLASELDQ
# Assay: Measurement of Ca2+ influx in transfected 1321N1 astrocytoma cells (P2X4 inhibitory potency)
# Format: cell-based
# Conditions: agonist-mediated Ca2+ influx, FLUO-4, 1321N1 astrocytoma cells; antagonists added 30 min before agonist
# Text: The rat, mouse, and human P2X4 DNA, respectively, were cloned into the retroviral vector pQCXIN. 1321N1 Astrocytoma cells were transfected with the DNA using a retroviral system as described previously. In brief, GP+envAM12 packaging cells were first transiently co-transfected with a retroviral vector to generate the retrovirus and with a vesicular stomatitis virus G protein (VSV-G) to pseudotype the virus and to increase their infection efficiency. The viruses containing the rat, mouse or human P2X4 receptor sequence were then used to create a stable astrocytoma cell line. P2X4 receptor-expressing cells were selected with G418 ([…]).
# The selection of monoclones for rat and human P2X4 receptors was performed using the limited dilution method by plating the cells at very low cell densities (1 cell clone per well in 96-well plates). Cells were counted, and then several dilutions were made to obtain a concentration of […]. We subsequently added 100 µL of the diluted cell suspension into each well expecting to obtain on average 1 cell per well. After a few days the wells that contained single clones were labeled and transferred into 24 well plates. More than 20 clones were selected for each cell line and characterized in calcium influx assay.
# Measurement of Ca^2+ influx in transfected 1321N1 astrocytoma cells
# P2X receptor function was determined on the basis of agonist-mediated increases in cytosolic Ca^2+ concentration. The fluorescent Ca^2+chelating dye FLUO-4 was used as an indicator of the relative levels of intracellular Ca^2+ in a 96-well format using a fluorescence imaging plate reader (Novostar, BMG, Germany). Cells were grown to confluence in 96-well black-walled tissue culture plates and loaded with FLUO-4 AM ([…]) in Hank's balanced salt solution (HBSS, containing 10 mM HEPES, pH 7.3, and 1% Pluronic® F127) for 1 h at 23° C. After incubation, the loaded cells were washed with the same buffer to remove extracellular FLUO-4 AM. Compound solutions were prepared in HBSS (containing 20 mM HEPES, pH 7.3) or DMSO depending on their solubility. […] Fluorescence intensity was measured at 520 nm for 30 s at 0.4 s intervals. Buffer or test compounds were injected sequentially into separate wells using the automatic pipetting device. At least three independent experiments were performed in triplicate or duplicate. Antagonists were added 30 min before the addition of agonists. The assays were performed in a final volume of 200 μL. Compounds were tested at 7-8 different concentrations spanning three orders of magnitude of concentrations. Statistical significances were calculated using the unpaired two-tailed t-test.
row,IC50,Compound
1,70 to 99 nM,"2-((2-methyl-5-(3-methyl- 1,2,4-oxadiazol-5-yl) phenyl)amino)-1-(1H- pyrrolo[2,3-b]pyridin-3- yl)ethan-1-one [Example 107]"
2,0.1 to 19 nM,"Cc1nsc(-c2ccc(C)c(NCC(=O)N3CCc4c3cccc4C(C)(O)CO)c2)n1 (racemic) [Example 62, 1-(4-(1,2-dihydroxypropan-2-yl)indolin-1-yl)-2-((2-methyl-5-(3-methyl-1,2,4-thiadiazol-5-yl)phenyl)amino)ethan-1-one]"
3,20 to 39 nM,"CCn1nnc(-c2ccc(OC)c(NCC(=O)N3CCc4c(OC)cccc43)c2)n1 [Example 5, 2-((5-(2-ethyl-2H-tetrazol-5-yl)-2-methoxyphenyl)amino)-1-(4-methoxyindolin-1-yl)ethan-1-one]"
4,70 to 99 nM,"COc1ccc(-c2nc(C)ns2)cc1NCC(=O)n1ccc2cc(F)ccc21 [Example 6, 1-(5-fluoro-1H-indol-1-yl)-2-((2-methoxy-5-(3-methyl-1,2,4-thiadiazol-5-yl)phenyl)amino-) ethan-1-one]"
5,> 100 nM,"CCc1noc(-c2ccc(OC)c(NCC(=O)N3CCc4ccc(C(F)(F)F)cc43)c2)n1 [Example 7, 2-(5-(3-ethyl-1,2,4-oxadiazol-5-yl)-2-methoxyphenylamino)-1-(6-(trifluoromethyl)indolin-1-yl)ethanone]"
6,40 to 69 nM,"CCc1noc(-c2ccc(OC)c(NCC(=O)N3CCc4ccc(Br)cc43)c2)n1 [Example 9, 1-(6-bromoindolin-1-yl)-2-((5-(3-ethyl-1,2,4-oxadiazol-5-yl)-2-methoxyphenyl)amino) ethan-1-one]"
7,70 to 99 nM,"Cc1nsc(-c2ccc(C)c(NCC(=O)N3CCc4nc(Cl)ccc43)c2)n1 [Example 10, 1-(5-chloro-2,3-dihydro-1H-pyrrolo[3,2-b]pyridin-1-yl)-2-((2-methyl-5-(3-methyl-1,2,4-thiadiazol-5-yl)phenyl)amino)ethan-1-one]"
8,20 to 39 nM,"CCc1noc(-c2ccc(OC)c(NCC(=O)N3CCc4nc(OC)ccc43)c2)n1 [Example 11, 2-((5-(3-ethyl-1,2,4-oxadiazol-5-yl)-2-methoxyphenyl)amino)-1-(5-methoxy-2,3-dihydro-1H-pyrrolo[3,2-b]pyridin-1-yl)ethan-1-one]"
9,0.1 to 19 nM,"Cc1nsc(-c2ccc(C)c(NCC(=O)N3CCc4c3cccc4N3C(=O)CCS3(=O)=O)c2)n1 [Example 13, 2-(1-((2-methyl-5-(3-methyl-1,2,4-thiadiazol-5-yl)phenyl)glycyl)indolin-4-yl) isothiazolidin-3-one 1,1-dioxide]"
10,0.1 to 19 nM,Cc1ccc(-c2nc(Br)ns2)cc1NCC(=O)N1CCc2c(OCC(C)(C)O)cccc21 [Example 14]
11,0.1 to 19 nM,"Cc1nsc(-c2ccc(C)c(NCC(=O)N3CCc4c(OCCCO)cccc43)c2)n1 [Example 16, 1-(4-(3-hydroxypropoxy)indolin-1-yl)-2-((2-methyl-5-(3-methyl-1,2,4-thiadiazol-5-yl)phenyl)amino) ethan-1-one]"
12,0.1 to 19 nM,"Cc1nsc(-c2ccc(C)c(NCC(=O)N3CCc4c3cccc4N3C(=O)CCC3=O)c2)n1 [Example 17, 1-(1-((2-methyl-5-(3-methyl-1,2,4-thiadiazol-5-yl)phenyl)glycyl)indolin-4-yl) pyrrolidine-2,5-dione]"
13,0.1 to 19 nM,"C=Cc1nsc(-c2ccc(C)c(NCC(=O)N3CCc4c(OCCOCCO)cccc43)c2)n1 [Example 18, 1-(4-(2-(2-hydroxyethoxy)ethoxy)indolin-1-yl)-2-((2-methyl-5-(3-vinyl-1,2,4-thiadiazol-5-yl)phenyl)amino) ethan-1-one]"
14,0.1 to 19 nM,"CCc1nsc(-c2ccc(C)c(NCC(=O)N3CCc4c(OCCOCCO)cccc43)c2)n1 [Example 19, 2-((5-(3-ethyl-1,2,4-thiadiazol-5-yl)-2-methylphenyl)amino)-1-(4-(2-(2-hydroxyethoxy)ethoxy)indolin-1-yl)ethan-1-one]"
15,0.1 to 19 nM,"CCc1nsc(-c2ccc(F)c(NCC(=O)N3CCc4c(C(C)O)cccc43)c2)n1 (centres unmarked) [Example 21, 2-((5-(3-ethyl-1,2,4-thiadiazol-5-yl)-2-fluorophenyl)amino)-1-(4-(1-hydroxyethyl)indolin-1-yl)ethan-1-one]"

# The remaining lines, values behind:
row,Compound,IC50
1,"Cc1nsc(-c2cc(NCC(=O)N3CCc4c3cc(Br)cc4[C@@](C)(O)CO)c(C)cc2Br)n1 (stereo in doubt) [Example 123, 2-((4-bromo-2-methyl-5-(3-methyl-1,2,4-thiadiazol-5-yl)phenyl)amino)-1-(6-bromo-4-(1,2-dihydroxypropan-2-yl)indolin-1-yl)ethan-1-one]",> 100 nM
2,"COc1cccc2c1CCN2C(=O)CNc1cc(-c2nc(C)ns2)ccc1C [Example 1, 1-(4-methoxyindolin-1-yl)-2-((2-methyl-5-(3-methyl-1,2,4-thiadiazol-5-yl)phenyl)-amino)ethan-1-one]",0.1 to 19 nM
3,"COc1cccc2c1CCN2C(=O)CNc1cc(-c2nc(C)no2)ccc1C [Example 2, 1-(4-methoxyindolin-1-yl)-2-((2-methyl-5-(3-methyl-1,2,4-oxadiazol-5-yl)phenyl)-amino)ethan-1-one]",0.1 to 19 nM
4,"CCc1noc(-c2ccc(F)c(NCC(=O)N3CCc4cc(OC)c(F)cc43)c2)n1 [Example 3, 2-((5-(3-ethyl-1,2,4-oxadiazol-5-yl)-2-fluorophenyl)amino)-1-(6-fluoro-5-methoxyindolin-1-yl)ethan-1-one]",20 to 39 nM
5,"COc1ccc(-c2nc(C)ns2)cc1NCC(=O)N1CCc2c(OC)cccc21 [Example 4, 2-((2-methoxy-5-(3-methyl-1,2,4-thiadiazol-5-yl)phenyl)-amino)-1-(4-methoxyindolin-1-yl)ethan-1-one]",20 to 39 nM
6,"COc1cccc2c1CCN2C(=O)CNc1cc(-c2nc(C)ns2)cc(F)c1OC [Example 8, 2-((3-fluoro-2-methoxy-5-(3-methyl-1,2,4-thiadiazol-5-yl)phenyl)amino)-1-(4-methoxyindolin-1-yl) ethan-1-one]",70 to 99 nM
7,"Cc1nsc(-c2ccc(C)c(NCC(=O)N3CCc4c(OCC(C)(C)O)cccc43)c2)n1 [Example 12, 1-(4-(2-hydroxy-2-methylpropoxy)indolin-1-yl)-2-((2-methyl-5-(3-methyl-1,2,4-thiadiazol-5-yl)phenyl)amino)]",0.1 to 19 nM
8,"C#Cc1nsc(-c2ccc(C)c(NCC(=O)N3CCc4c(OC)cccc43)c2)n1 [Example 15, 2-((5-(3-ethynyl-1,2,4-thiadiazol-5-yl)-2-methylphenyl)amino)-1-(4-methoxyindolin-1-yl)ethan-1-one]",0.1 to 19 nM
9,"CCc1nsc(-c2ccc(C)c(NCC(=O)N3CCc4c(NS(C)(=O)=O)cccc43)c2)n1 [Example 20, N-(1-((5-(3-ethyl-1,2,4-thiadiazol-5-yl)-2-methylphenyl)glycyl)indolin-4-yl) methanesulfonamide]",0.1 to 19 nM
10,"Cc1nsc(-c2ccc(C)c(NCC(=O)N3CCc4c3cccc4C(C)(C)O)c2)n1 [Example 22, 1-(4-(2-hydroxypropan-2-yl)indolin-1-yl)-2-((2-methyl-5-(3-methyl-1,2,4-thiadiazol-5-yl)phenyl)amino)ethan-1-one]",0.1 to 19 nM
11,"Cc1nsc(-c2ccc(C)c(NCC(=O)N3CCc4c(N5CCC6(CC5)COC6)cccc43)c2)n1 [Example 23, 1-(4-(2-oxa-7-azaspiro[3.5]nonan-7-yl)indolin-1-yl)-2-((2-methyl-5-(3-methyl-1,2,4-thiadiazol-5-yl)phenyl)-amino)ethan-1-one]",0.1 to 19 nM
